These results are taken from BindingDB's records for doi:10.1002/cbic.201600697 (University of Tartu, 2017).

For orientation: pKd means the negative decadic logarithm of the Kd, by convention in mol/L. Lower therefore signals a high Kd.

Holding throughout (settings): pH 7.5
For assay [1], the target named is T1, Serine/threonine-protein kinase haspin [470-798] (Homo sapiens, UniProt Q8TF76).
T1 construct: 470-798
T1 sequence (Q8TF76 whole entry): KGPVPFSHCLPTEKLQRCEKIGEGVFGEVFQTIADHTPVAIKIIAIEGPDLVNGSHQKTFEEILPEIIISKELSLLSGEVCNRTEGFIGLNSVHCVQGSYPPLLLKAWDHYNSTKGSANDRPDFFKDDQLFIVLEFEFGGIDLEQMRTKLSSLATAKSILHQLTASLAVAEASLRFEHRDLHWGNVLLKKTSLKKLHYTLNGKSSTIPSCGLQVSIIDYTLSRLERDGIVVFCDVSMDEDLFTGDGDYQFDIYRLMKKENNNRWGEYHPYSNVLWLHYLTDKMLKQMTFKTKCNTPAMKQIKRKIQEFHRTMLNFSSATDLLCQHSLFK
As to the kind of experiment: Equilibrium Binding/Displacement Assay with Fluorescence Anisotropy. The procedure:
(§1) All measurements were performed in HEPES (50 mm, pH 7.5) containing NaCl (150 mm), Tween-20 (0.005%) and DTT (5 mm) according to a previously published protocol.[Vaasa et al., Anal. Biochem., 385:85-93] The final volume of the assay mixture was […].
In general terms: Fluorescence polarisation rises when a labelled molecule tumbles more slowly, as on binding a larger partner.

Assay [2] concerns the target cAMP-dependent protein kinase catalytic subunit alpha (Homo sapiens, UniProt P17612). The description is as above. The procedure:
as §1

Assay [3] deals with T1, Serine/threonine-protein kinase haspin [470-798]. Briefly: Kinetic Assay with Fluorescence Anisotropy. The procedure: Association kinetics (Kon): All measurements were performed in HEPES (50 mM, pH 7.5) containing NaCl (150 mM), Tween-20 (0.005%) and DTT (5 mM) according to a previously published protocol.[Vaasa et al., Anal. Biochem., 385:85-93] The final volume of the assay mixture was […] The association kinetics assay with fluorescent probes and data analysis were performed according to published protocols.[Vaasa et al., Anal. Biochem., 385:85-93] The final volume of the assay mixture was […]. Dissociation kinetics (Koff): All measurements were performed in HEPES (50 mM, pH 7.5) containing NaCl (150 mM), Tween-20 0.005%) and DTT (5 mM). Data analysis was as reported previously,[Vaasa et al., Anal. Biochem., 385:85-93] by using method1 for compounds with shorter residence times, and method 2 for 1 in studies with haspin. The final volume of the assay mixture was […]. Kd' is calculated as Koff/Kon.

pKd: −log10 of the molar value. Several values for one entry are separate records, joined by “and”; a condition that tells them apart may be missing. Identical values can stand only once.

For `CCCCCCCCCCCCCC(=O)NCCCC[C@@H](NC(=O)[C@H](C)NC(=O)[C@@H](NC(=O)[C@H](CCC(N)=O)NC(=O)[C@H](CCCNC(=N)N)NC(=O)[C@H](CCCCNC(=O)C[C@@H](NC(=O)CCCCCNC(=O)[C@H]1O[C@@H](n2ccc3c(N)ncnc32)[C@H](O)[C@@H]1O)C(=O)[O-])NC(=O)[C@H](CCCNC(=N)N)NC(=O)[C@H](C)N)C(C)O)C(=O)N[C@H](CCCCNC(=O)c1ccc(-c2c3ccc(=[N+](C)C)cc-3oc3cc(N(C)C)ccc23)c(C(=O)O)c1)C(N)=O` (stereo partly specified) [ARC-3380], the pKd in assay [1] was 8.08; in assay [2], 8.02; in assay [3] it was 7.83.
For `CC(O)[C@H](NC(=O)[C@H](CCC(N)=O)NC(=O)[C@H](CCCNC(=N)N)NC(=O)[C@H](CCCCNC(=O)C[C@@H](NC(=O)CCCCCNC(=O)[C@H]1O[C@@H](n2ccc3c(N)ncnc32)[C@H](O)[C@@H]1O)C(=O)[O-])NC(=O)[C@H](CCCNC(=N)N)NC(=O)[C@H](C)N)C(=O)N[C@@H](C)C(=O)N[C@H](CCCCNC(=O)c1ccc(-c2c3ccc(=[N+](C)C)cc-3oc3cc(N(C)C)ccc23)c(C(=O)O)c1)C(N)=O` (stereo partly specified) [ARC-3384], the pKd is 7.96 in assay [1], 7.28 in assay [2] and 8.55 in assay [3].
As for `CC(O)[C@H](NC(=O)[C@H](CCC(N)=O)NC(=O)[C@H](CCCNC(=N)N)NC(=O)[C@H](CCCCNC(=O)C[C@@H](NC(=O)CCCCCNC(=O)[C@H]1O[C@@H](n2cc(I)c3c(N)ncnc32)[C@H](O)[C@@H]1O)C(=O)O)NC(=O)[C@H](CCCNC(=N)N)NC(=O)[C@H](C)N)C(=O)N[C@@H](C)C(=O)N[C@H](CCCCN)C(N)=O` (stereo partly specified) [ARC-3429], the pKd in assay [1] was 9.85 and 10.72; in assay [2], 7.03.
For `CC(O)[C@H](NC(=O)[C@H](CCC(N)=O)NC(=O)[C@H](CCCNC(=N)N)NC(=O)[C@H](CCCCNC(=O)C[C@@H](NC(=O)CCCCCNC(=O)[C@H]1O[C@@H](n2cc(I)c3c(N)ncnc32)[C@H](O)[C@@H]1O)C(=O)[O-])NC(=O)[C@H](CCCNC(=N)N)NC(=O)[C@H](C)N)C(=O)N[C@@H](C)C(=O)N[C@H](CCCCNC(=O)c1ccc(-c2c3ccc(=[N+](C)C)cc-3oc3cc(N(C)C)ccc23)c(C(=O)O)c1)C(N)=O` (stereo partly specified) [ARC-3430], the pKd was 9.30 and 9.92 in assay [1]; 8.39 in assay [2]; 10.00 in assay [3].
